In paper PMC10304387, “In Vitro and In Silico Evaluation of Anticholinesterase and Antidiabetic Effects of Furanolabdanes and Other Constituents from Graptophyllum pictum (Linn.) Griffith” (Molecules, 2023):
Values after ≈ are worked out from the molar mass of the structure shown. Where two headings read alike, the source gives them in different places.

What was measured:
[1] = biological target: T1, α-amylase (Sus scrofa, UniProt P00690); experiment: α-amylase inhibition (starch–iodine method); conditions: for inhibition at 100 µg/mL: read-out: percentage inhibition of α-amylase
T1 sequence (P00690 16-511): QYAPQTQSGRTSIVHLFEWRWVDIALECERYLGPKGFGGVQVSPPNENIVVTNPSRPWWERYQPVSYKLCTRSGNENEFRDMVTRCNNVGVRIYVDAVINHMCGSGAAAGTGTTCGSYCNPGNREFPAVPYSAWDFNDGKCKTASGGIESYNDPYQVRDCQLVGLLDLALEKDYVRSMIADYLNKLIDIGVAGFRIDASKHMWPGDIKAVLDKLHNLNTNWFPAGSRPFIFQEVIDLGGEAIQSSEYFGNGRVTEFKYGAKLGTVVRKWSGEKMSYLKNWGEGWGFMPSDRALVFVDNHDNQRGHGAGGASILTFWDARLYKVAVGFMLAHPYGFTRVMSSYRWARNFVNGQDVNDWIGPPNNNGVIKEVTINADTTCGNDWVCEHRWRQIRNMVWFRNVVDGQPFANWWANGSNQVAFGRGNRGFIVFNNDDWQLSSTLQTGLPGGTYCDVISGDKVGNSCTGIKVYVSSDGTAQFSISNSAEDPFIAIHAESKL
Experimental: The inhibition of α-amylase was determined using starch–iodine method with few modifications [64, 65]. Next, 50 µL of α-amylase from porcine pancreas in pH 6.9 phosphate buffer prepared with 6 mM NaCl and 25 µL of sample solutions was mixed in a 96-well microplate. The mixture was pre-incubated for 10 min at 37 °C. Next, 50 µL of starch solution (0.05%) was added and incubated for 10 min at 37 °C. Following incubation, the reaction was completed by adding HCl (0.1 M, 25 µL) and Lugol (100 µL) solutions, and the absorbance was recorded at 630 nm using a Multiskan Go microplate reader spectrophotometer (Thermo Fischer Scientific, Waltham, MA, USA).

[2] = biological target: T2, acetylcholinesterase (AChE) (Electrophorus electricus, UniProt O42275); experiment: biochemical; conditions: for inhibition at 100 µg/mL: read-out: percentage inhibition of AChE, at 100 µg/mL
[3] = tested on: α-glucosidase; experiment: α-glucosidase inhibitory activity (PNPG substrate); design: IC50 ± SEM (α-glucosidase): unit not given beside the values; conditions: for percentage inhibition of α-glucosidase: at 100 µg/mL; for IC50 α-Glucosidase: mean ± SEM of three measurements, highest test concentration 100 µg/mL; for IC50 ± SEM (α-glucosidase): Table 2 prints no unit, repeats Table 1 values
[4] = biological target: butyrylcholinesterase (BChE) (Equus caballus, UniProt P81908); experiment: biochemical; conditions: for inhibition at 100 µg/mL: read-out: percentage inhibition of BChE
Experimental: The anticholinesterase activity of the extracts and compounds was determined spectrophotometrically via the acetylcholinesterase (AChE) and butyrylcholinesterase (BChE) enzyme inhibition assay method described by Ellman with minor modifications [62, 63]. AChE and BChE from electric eel and horse serum, respectively, were used. The substrates of the reactions were acetylthiocholine iodide and butyrylthiocholine chloride. The activity of the cholinesterase was monitored using DTNB (5,5′-Dithio-bis(2-nitrobenzoic) acid). […] A Multiskan Go microplate reader spectrophotometer (Thermo Fischer Scientific, Waltham, MA, USA) was used to read optical densities.

[5] = biological target: T2, acetylcholinesterase (AChE); conditions: read-out: IC50 ± SEM (Acetylcholinesterase); Table 2 prints no unit; repeats Table 1 values

butyrylcholinesterase (BChE), sequence (P81908 whole entry): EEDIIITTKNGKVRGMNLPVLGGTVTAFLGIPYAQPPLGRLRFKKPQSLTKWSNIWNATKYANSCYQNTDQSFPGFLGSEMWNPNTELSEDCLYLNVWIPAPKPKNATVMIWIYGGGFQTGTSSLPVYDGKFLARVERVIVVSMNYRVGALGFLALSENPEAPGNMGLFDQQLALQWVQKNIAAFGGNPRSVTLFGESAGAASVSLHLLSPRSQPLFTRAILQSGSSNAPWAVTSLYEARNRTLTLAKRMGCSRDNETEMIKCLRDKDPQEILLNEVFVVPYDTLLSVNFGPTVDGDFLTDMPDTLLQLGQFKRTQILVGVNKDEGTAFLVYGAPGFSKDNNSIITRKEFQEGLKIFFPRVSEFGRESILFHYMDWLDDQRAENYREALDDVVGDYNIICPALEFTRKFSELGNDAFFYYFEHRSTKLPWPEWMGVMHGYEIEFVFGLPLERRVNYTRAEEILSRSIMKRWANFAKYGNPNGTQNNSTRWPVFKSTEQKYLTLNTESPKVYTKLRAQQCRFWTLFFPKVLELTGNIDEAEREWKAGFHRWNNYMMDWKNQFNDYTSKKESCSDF
T2 sequence (O42275 24-633): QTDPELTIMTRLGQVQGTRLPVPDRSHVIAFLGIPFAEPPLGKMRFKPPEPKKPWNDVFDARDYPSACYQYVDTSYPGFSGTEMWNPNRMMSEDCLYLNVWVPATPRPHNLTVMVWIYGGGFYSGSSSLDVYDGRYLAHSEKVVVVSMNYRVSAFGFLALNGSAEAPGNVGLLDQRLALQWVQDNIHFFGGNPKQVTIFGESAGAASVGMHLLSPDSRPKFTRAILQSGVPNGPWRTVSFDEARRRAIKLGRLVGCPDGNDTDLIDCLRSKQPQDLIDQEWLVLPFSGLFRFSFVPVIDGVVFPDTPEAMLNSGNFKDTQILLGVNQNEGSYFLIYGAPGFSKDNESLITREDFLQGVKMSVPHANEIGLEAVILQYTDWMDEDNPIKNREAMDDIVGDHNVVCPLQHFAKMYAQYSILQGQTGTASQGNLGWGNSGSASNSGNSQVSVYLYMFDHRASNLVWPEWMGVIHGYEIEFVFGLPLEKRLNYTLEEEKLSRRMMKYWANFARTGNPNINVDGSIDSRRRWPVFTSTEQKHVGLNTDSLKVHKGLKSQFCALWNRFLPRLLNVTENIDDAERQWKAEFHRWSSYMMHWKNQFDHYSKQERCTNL

SMILES | IC50 [1] [µM] | IC50 [2] [µM] | percentage inhibition of α-glucosidase [3] [%] | IC50 α-Glucosidase [3] [µg/mL] | IC50 [4] [µM] | inhibition at 100 µg/mL [4] [%] | inhibition at 100 µg/mL [1] [%] | inhibition at 100 µg/mL [2] [%] | IC50 ± SEM (α-glucosidase) [3] | IC50 [5] [µM]
C=C(C)[C@@H]1CC[C@]2(C)CC[C@]3(C)[C@H](CC[C@@H]4[C@@]5(C)CC[C@H](O)C(C)(C)[C@@H]5CC[C@]43C)[C@@H]12 [Lupeol] | > 234 | > 234 | 60.91 ± 0.76 | 69.75 ± 0.42 (≈ 163 µM) | > 234 |  |  |  |  | 
COc1ccc2c3c1O[C@H]1C[C@@H](O)C=C[C@@]31CCN(C)C2 [Galantamine, galantamine, reference compound] |  |  |  |  |  | 73.85 ± 0.3 |  |  |  | 
CC1=CC2OC3OCC4(CCCC3(C)C24)C1CC(=O)c1ccoc1 (stereo not drawn) [Hypopurin E] | 225 | > 304 | 54.79 ± 0.85 | 76.33 ± 1.10 (≈ 232 µM) | 265 | 52.8 ± 1.07 | 53.9 ± 0.52 | 20.4 ± 0.56 | 76.33 ± 1.10 | > 304
CC[C@H](/C=C/[C@@H](C)[C@H]1CC[C@H]2[C@@H]3CC=C4C[C@@H](O[C@@H]5O[C@H](CO)[C@@H](O)[C@H](O)[C@H]5O)CC[C@]4(C)[C@H]3CC[C@]12C)C(C)C [Stigmasterol glucoside, Stigmasterol 3-O-β-D-glucopyranoside] | > 174 | > 174 |  | >100 | > 174 |  |  | 25.2 ± 0.94 |  | 
CC1=C[C@H]2OC3OC(=O)[C@@]4(C)CCC[C@@]3([C@@H]24)[C@H]1CC(=O)c1ccoc1 [Hypopurin B] | 203 | > 292 | 51.95 ± 0.63 | 71.41 ± 0.98 (≈ 209 µM) | 196 | 61.8 ± 1.15 | 56.68 ± 0.24 | 24.8 ± 0.33 | 71.41 ± 0.98 | > 292
CC1=C[C@H]2OC(=O)[C@@]3(C)CCC[C@@](C)([C@@H]23)[C@H]1CC(=O)c1ccoc1 [Hypopurin A] | 185 | > 304 | 50.13 ± 0.81 | 99.25 ± 0.96 (≈ 302 µM) | 177 | 64.8 ± 0.93 | 65.8 ± 0.84 | 40.2 ± 0.75 | 99.25 ± 0.96 | > 304
CC[C@H](CC[C@@H](C)[C@H]1CC[C@H]2[C@@H]3CC=C4C[C@@H](O[C@@H]5O[C@H](CO)[C@@H](O)[C@H](O)[C@H]5O)CC[C@]4(C)[C@H]3CC[C@]12C)C(C)C [β-Sitosterol glucoside, 3β-O-D-glucopyranosyl-β-sitosterol] | > 173 | > 173 |  | >100 | > 173 |  |  | 30.45 ± 0.23 |  | 
C[C@H]1O[C@H](O[C@H]2[C@H](O)[C@@H](O)[C@@H](O[C@H]3[C@H](O)[C@@H](O)C(O)O[C@@H]3CO)O[C@@H]2CO)[C@H](O)[C@@H](O)[C@@H]1N[C@H]1C=C(CO)[C@@H](O)[C@H](O)[C@H]1O (stereo partly drawn) [Acarbose, acarbose, reference compound] |  |  | 51.35 ± 0.65 |  |  |  | 75.84 ± 0.52 |  |  | 
